Patent US6887878B2, “KMST isoeugenol derivatives and pharmaceutical activity” (Ing-Jun Chen, priority 2003, dated 2005)
“And” between values parts separate entries of the source, which are not always exact repeats. Equal values may be shown once.

How the values were obtained:
[1] = biological target: α1 receptors; assay: [3H]prazosin receptor binding in rat cortex; design: species or system Wistar rat
Procedure: (§1) The homogenate was pressure filtered through muslin. Filtrate was centrifuged at 1000 g for 10 min. […] Protein content was determined by Bradford's method.

[2] = tested on: pentobarbital-anesthetized rats; assay: intravenous injection in pentobarbital-anesthetized rats, BP and HR; assay type: in vivo, Wistar rat; settings: intravenous administration
Procedure: (§2) In brief, Wistar rats weighing 250-300 g were anesthetized with pentobarbital sodium (50 mg kg^−1, i.p.). Following tracheal cannulation, systemic arterial BP and HR were recorded from the femoral artery by a pressure transducer (model P10EZ; Spectramed, Oxnard, Calif., U.S.A.) connected to a recorder (GOULD, Valley View, Ohio, Model P50). Body temperature was maintained at 37° C. by an electric heating pad. A femoral vein was cannulated for intravenous injection of drugs and LPS (10 mg kg^−1).

[3] = tested on: α2-adrenergic receptor; assay: clonidine-induced contraction in isolated rat thoracic aorta (pA2); design: species or system Wistar rat; settings: Schild plot, mean ± SEM of eight, listed as KMST
Procedure: Clonidine, noradrenaline and serotonin (10^−8˜10^−4 M) were added to the bath to induce contractions after pretreatment with KMST for 15 min.

[4] = tested on: epinephrine-induced human platelet aggregation; assay: epinephrine-induced human platelet aggregation; assay type: cell-based; settings: epinephrine 5 μM, PRP
Procedure: Venous blood from human volunteer donors was collected in 10 ml Monovette containing 1 ml citrate solution (0.106M trisodium citrate; Sarstedt, Nümbrecht, Germany) and centrifuged (400 g, 10 min, 20° C.). […] After centrifugation (10 min, 2000 g, 20° C.), the platelet pellet was resuspended in wishing buffer (113 mM NaCl, 4 mM Na2HPO4, 24 mM NaH2PO4, 4 mM KCl, 0.2 mM EGTA(Ethylene glycol-bis-(2-aminoethyl ether) N,N,N′-tetraacetic acid), 0.1% (wt/vol) glucose, pH 6.0) and recentrifuged (10 min, 2000 g, 20° C.). The washed platelets were resuspended in incubation buffer (134 mM NaCl, 12 mM NaHCO3, 2.9 mM KCl, 0.34 mM NaH2PO4, 5 mM HEPES (N-(2-hydroxyethyl) piperazine-N′-(2-ethanesulfonic acid)), 5 mM glucose, pH7.4), cells were counted in a Sysmex hematology analyzer (Sysmex, CDA-500, Japan) and adjusted to a final concentration of 2×10^8 platelets/ml.
The aggregation of the platelets in platelet-rich plasma (PRP) was measured as a change in light absorbance by a Payton dual-channel aggregometer (NBS, Hema tracer, Japan). PRP (240 μL) was stirred (700 rpm) at 37° C. for 1 min, and 5 μL epinephrine (final concentration 5 μM), serotonin (final concentration 5 μM) was added. After which the rate of primary aggregation (1/min) and maximum aggregation (%) at 5 min were recorded. To study the effects of compounds on epinephrine or serotonin-induced aggregation, PRP was incubated with 5 μL of compounds at various concentrations for 1 min before epinephrine or serotonin was added. IC50 values given were calculated from the secondary aggregation data.

[5] = tested on: anesthetized rats; assay: intra-cisternal injection and NTS microinjection, BP and HR; assay type: in vivo, rat
Procedure: Intra-cisternal injections of KMST (0.3, 0.03 μmol), yohimbine [0.03 μmol), and clonidine (38 pmol), were performed in rats as described by Duan et al (1987). Briefly, rats weighing 250-300 g were anaesthetized with pentobarbital sodium (50 mg kg^−1, i.p.) and mounted in a David-Kopf stereotaxic instrument (Yeh J L. et al., Brain. Res. Bull., 30:641-648, 1993). The calvarium was exposed and a 1 mm diameter trephine hole was drilled 1.8 mm lateral to the coronary and 1.5 mm posterior to the sagittal sutures. A cannula (0.7 mm O.D.) connected to a Hamilton syringe (RN-705, 5051) by PE-50 was advanced 4.7 mm into the brain using the electrode carrier.
Rats were anesthetized and placed in a David-Kopf stereotaxic instrument. The cerebellum was exposed after removing the skin and occipital bone. The NTS coordinates were (reference to lambda) P 5-6 mm, L/R 0.5-1 mm, depth 6-7.5 mm (Wu et al., 1994). NTS injection sites were confirmed by decreasing BP and HR following micro-injection of 1% L-glutamate. […] Pre-treatment with clonidine was performed 15 min before administration of test agents. At the end of experiments, the animals were sacrificed. The brain was removed and sectioned for histological confirmation of the drug application site.

[6] = biological target: M2; assay: M2 receptor binding; design: species or system guinea pig
[7] = biological target: T1, β1-adrenoceptor (Rattus norvegicus, UniProt P18090); assay: isoprenaline-induced positive inotropic effects in electrically stimulated rat left atria (pA2); design: species or system Wistar rat; settings: Schild plot, mean ± SEM of eight, listed as KMST
T1 construct: Left atria were dissected from the hearts and mounted in a 10 ml organ bath; from tissue; host or cells: rat left atria, electrically driven
T1 sequence (P18090 whole entry): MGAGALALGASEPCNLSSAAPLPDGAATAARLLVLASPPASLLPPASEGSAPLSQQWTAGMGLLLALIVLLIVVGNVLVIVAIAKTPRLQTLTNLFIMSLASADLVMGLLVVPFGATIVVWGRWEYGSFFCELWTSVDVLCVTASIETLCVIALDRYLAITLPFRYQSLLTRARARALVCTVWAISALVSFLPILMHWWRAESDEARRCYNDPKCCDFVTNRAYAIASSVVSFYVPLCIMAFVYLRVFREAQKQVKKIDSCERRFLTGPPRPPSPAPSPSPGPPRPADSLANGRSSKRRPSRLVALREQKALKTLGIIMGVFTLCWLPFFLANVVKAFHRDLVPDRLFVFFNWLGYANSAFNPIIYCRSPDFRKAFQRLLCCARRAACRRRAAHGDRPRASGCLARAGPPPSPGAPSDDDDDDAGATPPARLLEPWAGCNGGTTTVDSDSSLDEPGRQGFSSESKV
Procedure: Rats of either sex weighing 350-500 g were sacrificed after mild anesthesia with ether, and their hearts were quickly excised. Left atria were dissected from the hearts and mounted in a 10 ml organ bath with one end fixed and the other end connected to a force displacement transducer (Grass, Model FT03). […] Atria were pre-stretched to a baseline tension of 0.5 g and equilibrated for 60 min in an aerated Krebs solution before starting experimental protocols. Atria were driven at 2-s intervals via two platinum electrodes on each side. An incubation time of 30 min was allowed for the test compound.

[8] = biological target: T2, β1 receptors (Rattus norvegicus, UniProt P18090); assay: [3H]CGP-12177 receptor binding in rat ventricle; design: species or system Wistar rat; settings: [3H]CGP-12177, rat ventricle
T2 construct: from tissue; host or cells: Wistar rat heart (ventricle) membranes
T2 sequence (P18090 whole entry): as above
Procedure: as §1

[9] = LPS-induced blood glucose changes; assay type: in vivo, rat
Procedure: as §2
(§3) Blood was collected from venous cannula, injected into ice-cold heparinized Eppendorf tubes and centrifuged at 1500 rpm for 10 min at 4° C. Plasma supernatant was stored at −70° C. until analyzed. Solid phase enzyme immunoassay that specifically detects murine IL-1β, IL-6, IFN-γ and TNF-α was used with a detection limit of >10 pg/ml (Endogen, U.S.A). Pre-treatment with KMST and other agents was performed 15 minutes before intravenous injection of LPS. Blood was collected from venous cannula. Blood glucose was measured with a glucose test strip (Glucotide, Bayer, U.S.A) at 1, 3 and 5 hours.

[10] = biological target: 5-HT2A receptor (Rattus norvegicus, UniProt P14842); assay: [3H]ketanserin receptor binding in rat cortex; design: from tissue; host or cells: Wistar rat cortex membranes; species or system Wistar rat
Chain of 5-HT2A receptor (P14842 whole entry): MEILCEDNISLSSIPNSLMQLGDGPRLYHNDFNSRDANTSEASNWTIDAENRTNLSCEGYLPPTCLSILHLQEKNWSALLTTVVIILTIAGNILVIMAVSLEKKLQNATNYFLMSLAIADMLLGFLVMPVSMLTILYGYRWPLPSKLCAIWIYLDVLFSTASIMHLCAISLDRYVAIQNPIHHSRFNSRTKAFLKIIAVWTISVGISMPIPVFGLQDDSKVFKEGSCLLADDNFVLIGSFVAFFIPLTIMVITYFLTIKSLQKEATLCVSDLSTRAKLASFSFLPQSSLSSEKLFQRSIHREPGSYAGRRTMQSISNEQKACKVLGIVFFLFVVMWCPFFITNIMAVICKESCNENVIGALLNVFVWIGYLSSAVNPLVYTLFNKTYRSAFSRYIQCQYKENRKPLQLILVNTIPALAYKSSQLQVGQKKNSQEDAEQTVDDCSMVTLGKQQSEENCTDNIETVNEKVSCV
Procedure: as §1

[11] = biological target: T3, β2 receptors (Rattus norvegicus, UniProt P10608); assay: [3H]CGP-12177 receptor binding in rat lung; design: species or system Wistar rat; settings: [3H]CGP-12177, rat lung
T3 construct: from tissue; host or cells: Wistar rat lung membranes
T3 sequence (P10608 whole entry): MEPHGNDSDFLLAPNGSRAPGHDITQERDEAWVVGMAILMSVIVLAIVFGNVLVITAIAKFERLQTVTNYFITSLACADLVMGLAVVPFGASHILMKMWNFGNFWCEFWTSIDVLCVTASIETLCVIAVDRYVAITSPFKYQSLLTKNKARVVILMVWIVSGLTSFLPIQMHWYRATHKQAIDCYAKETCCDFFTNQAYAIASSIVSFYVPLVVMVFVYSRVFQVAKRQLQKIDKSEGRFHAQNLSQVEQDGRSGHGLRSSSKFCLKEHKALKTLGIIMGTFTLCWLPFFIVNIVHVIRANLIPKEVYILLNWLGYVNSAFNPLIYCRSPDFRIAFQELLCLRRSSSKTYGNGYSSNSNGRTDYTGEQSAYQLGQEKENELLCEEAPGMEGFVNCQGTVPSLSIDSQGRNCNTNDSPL
Procedure: as §1

[12] = tested on: IL-1β, IL-6, IFN-γ and TNF-α; assay: LPS-induced plasma cytokine immunoreactivity; assay type: in vivo, rat; settings: 1 mg kg−1, i.v., pretreatment
Procedure: as §2, §3

## CC=Cc1ccc(OCC(O)CN2CCN(c3cccc(Cl)c3)CC2)c(OC)c1 (centres unmarked) [Compound 1]
[1]
  Ki: 142 nM
[2]
  mean BP and HR: dose-dependent decrease
  phenylephrine- and isoprenaline-induced changes in BP and HR: inhibited
[3]
  α2 pA2 value: 7.40±0.38
[4]
  IC50: 2780 nM
[5]; central administration
  BP and HR after intra-cisternal injection and NTS microinjection: increased BP and HR
[5]; high dose (0.3 μmol)
  clonidine-induced hypotension and bradycardia: reduced both
[5]; low dose (0.03 μmol)
  clonidine-induced bradycardia: did not inhibit
  clonidine-induced hypotension: reduced
[6]
  Ki: > 10000 nM
[7]
  β1 pA2 value: 6.66±0.17 and 6.66
[8]
  Ki: 72.8 nM
[9]; at 1 and 3 hours
  LPS-induced early hyperglycemia: inhibited
[9]; at 5 hours
  LPS-induced hypoglycemia: did not affect
[10]
  Ki: 33.3 nM
[11]
  Ki: > 10000 nM
[12]
  LPS-induced elevations of IL-1β, IL-6, IFN-γ and TNF-α levels: inhibited
